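Protocol summary: plate cells (96-well), add compound at 5 concentrations, incubate 48 h, interpolate endpoints linearly. TGI marks complete inhibition of growth.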

Some test systems named below: 786-0 renal; A549 NSCLC; CAKI-1 renal; CCRF-CEM leukemia; HL-60(TB) leukemia; LOX IMVI melanoma; MALME-3M melanoma; NCI-H226 lung; NCI-H23 lung; NCI-H460 lung; OVCAR-3 ovarian; OVCAR-5 ovarian; OVCAR-8 ovarian; SF-295 CNS; SK-OV-3 ovarian; T-47D breast; TK-10 renal; HOP-92 NSCLC; U251 CNS.
Holding throughout (experiment): NCI-60 cell line screen, 48 h

In the case of `[O-][n+]1onc2c1/C(=N/O)CCC2`, the TGI in the assay on 786-0 renal, with A549 NSCLC, in the assay with CAKI-1 renal, with CCRF-CEM leukemia, with HL-60(TB) leukemia and with LOX IMVI melanoma was > 100 µM each time. The TGI in the assay on MALME-3M melanoma, in the assay with NCI-H226 lung, with NCI-H23 lung, in the assay with NCI-H460 lung, in the assay with OVCAR-3 ovarian and with OVCAR-5 ovarian was > 100 µM throughout. Besides, the TGI in the assay with OVCAR-8 ovarian, in the assay with SF-295 CNS, in the assay on SK-OV-3 ovarian, with T-47D breast and in the assay on TK-10 renal was > 100 µM in each case.

In the case of `O=C1C2CN(Cc3ccccc3)CC1CN(CC1CC1)C2`, the TGI in the assay with 786-0 renal, in the assay on A549 NSCLC, in the assay with CAKI-1 renal, with CCRF-CEM leukemia, in the assay on HL-60(TB) leukemia and with HOP-92 NSCLC was > 100 µM each time. Further, the TGI in the assay on LOX IMVI melanoma, in the assay on MALME-3M melanoma, in the assay with NCI-H226 lung, in the assay with NCI-H23 lung, in the assay on NCI-H460 lung and in the assay on OVCAR-3 ovarian was > 100 µM each time. In addition, the TGI with OVCAR-5 ovarian, in the assay with OVCAR-8 ovarian, with SF-295 CNS, in the assay on SK-OV-3 ovarian, with TK-10 renal and with U251 CNS was > 100 µM in each case.

`O=c1[nH]c(=O)n(C2CC(O)C(CO)O2)cc1OCC1CCCCC1` (stereo unspecified): the TGI in the assay with 786-0 renal, with A549 NSCLC, in the assay on CAKI-1 renal, in the assay with CCRF-CEM leukemia, in the assay on HL-60(TB) leukemia and in the assay on LOX IMVI melanoma was > 100 µM each time. Also, the TGI in the assay with MALME-3M melanoma, in the assay with NCI-H226 lung, in the assay on NCI-H23 lung, in the assay on NCI-H460 lung, with OVCAR-3 ovarian and in the assay with OVCAR-5 ovarian was > 100 µM in each case. Besides, the TGI in the assay on OVCAR-8 ovarian, in the assay on SF-295 CNS, in the assay with SK-OV-3 ovarian, in the assay with T-47D breast, in the assay with TK-10 renal and with U251 CNS was > 100 µM throughout.

For `COc1c(C)cc2c(c1O)C1NC(C2)[C@H](O)N2C3COC(=O)[C@@]4(CS[C@@H](c5c(OC(C)=O)c(C)c6c(c53)OCO6)C12)NCCC1=C4NC2C=CC=CC12` (stereo partly specified), the TGI in the assay with 786-0 renal, in the assay on A549 NSCLC, with CCRF-CEM leukemia, with HL-60(TB) leukemia, in the assay on LOX IMVI melanoma and with MALME-3M melanoma was < 0.01 µM throughout. Also, the TGI with NCI-H226 lung is < 0.01 µM; in the assay on NCI-H23 lung, < 0.01 µM; in the assay on OVCAR-3 ovarian it was < 0.01 µM; in the assay with OVCAR-8 ovarian, < 0.01 µM; in the assay with SF-295 CNS it was < 0.01 µM; with TK-10 renal, 1.31 µM. For the same compound, the TGI in the assay with U251 CNS was < 0.01 µM.

With `CC(C)(C)OC(=O)C1CC[C@@H](CC(=O)Oc2ccc([N+](=O)[O-])cc2)N1` (stereo partly specified), the TGI in the assay with 786-0 renal, in the assay with A549 NSCLC, in the assay with CAKI-1 renal, in the assay on CCRF-CEM leukemia, in the assay with HL-60(TB) leukemia and with HOP-92 NSCLC was > 100 µM each time. In addition, the TGI in the assay with LOX IMVI melanoma, with MALME-3M melanoma, in the assay with NCI-H226 lung, with NCI-H23 lung, in the assay on NCI-H460 lung and with OVCAR-3 ovarian was > 100 µM each time. Further, the TGI in the assay on OVCAR-5 ovarian, with OVCAR-8 ovarian, with SF-295 CNS, in the assay with SK-OV-3 ovarian, with TK-10 renal and in the assay with U251 CNS was > 100 µM throughout.

Turning to `COC1O[C@H]2[C@H]3[C@@H]1[C@@H](OS(=O)(=O)c1ccc(C)cc1)C(=O)N3C[C@H]2O` (stereo partly specified), the TGI in the assay with 786-0 renal, in the assay on A549 NSCLC, in the assay with CAKI-1 renal, in the assay with LOX IMVI melanoma, in the assay on MALME-3M melanoma and in the assay with NCI-H226 lung was > 100 µM throughout. In addition, the TGI in the assay on NCI-H23 lung, in the assay with NCI-H460 lung, in the assay with OVCAR-3 ovarian, with OVCAR-5 ovarian, in the assay with OVCAR-8 ovarian and in the assay with SF-295 CNS was > 100 µM in each case. Moreover, the TGI in the assay with SK-OV-3 ovarian, with T-47D breast, in the assay with TK-10 renal and in the assay on U251 CNS was > 100 µM throughout.

Consider `O[C@@H]1C[C@H]2N3CC[C@@]2(c2cc4c(cc2C3)OCO4)[C@H]2O[C@@H]12`, for which the TGI in the assay with 786-0 renal, in the assay with A549 NSCLC, in the assay on CAKI-1 renal, in the assay on CCRF-CEM leukemia, in the assay with HL-60(TB) leukemia and with HOP-92 NSCLC was > 100 µM throughout. Further, the TGI in the assay with LOX IMVI melanoma was > 100 µM; in the assay with MALME-3M melanoma it was > 100 µM; with NCI-H226 lung, 0.0792 µM; in the assay on NCI-H23 lung, > 100 µM; with NCI-H460 lung, > 100 µM; in the assay with OVCAR-3 ovarian, > 100 µM. Besides, the TGI in the assay with OVCAR-5 ovarian, with OVCAR-8 ovarian, with SF-295 CNS, in the assay on SK-OV-3 ovarian, in the assay with TK-10 renal and with U251 CNS was > 100 µM in each case.

As for `COC(=O)c1c2c(cc3c1CC1(Cc4cc5c(cc4C1=O)CCC5)C3)CCC2` (stereo unspecified), the TGI in the assay with 786-0 renal, in the assay on A549 NSCLC, in the assay on CAKI-1 renal, in the assay on CCRF-CEM leukemia, with HL-60(TB) leukemia and in the assay on LOX IMVI melanoma was > 100 µM each time. For the same compound, the TGI in the assay on MALME-3M melanoma, in the assay with NCI-H226 lung, in the assay on NCI-H23 lung, in the assay on NCI-H460 lung, with OVCAR-3 ovarian and with OVCAR-5 ovarian was > 100 µM in each case. Besides, the TGI was > 100 µM in the assay with OVCAR-8 ovarian; > 100 µM in the assay on SF-295 CNS; 93.8 µM with SK-OV-3 ovarian; > 100 µM in the assay with T-47D breast; > 100 µM with TK-10 renal; > 100 µM with U251 CNS.

The record behind these values is PubChem BioAssay (NCI).
